Measured values taken from US5510385A, “Pharmaceutical compositions containing the salts of S(+)-2-(4-isobutylphenyl)propionic acid with basic aminoacids” (priority 1993, dated 1996).
Structures can show the parent of a compound that is named as a salt.

Key:
[1] = S(+)-Ibuprofen plasma concentrations and bioavailability parameters after single oral dose, cross-over (Examples 6-10, HPLC)
Experimental: Each subject was apparently healthy, especially as lap as the Renal, hepatic and hematopoietic functions were concerned.
For the trial, a cross-over design was adopted: each subject received both preparations in two treatment sessions carried out in two different weeks randomizing the order of the administration.
Further, samples of venous blood were withdrawn at 5, 10, 15, 30, 45, 60, 90, 120, 240 and 480 minutes after the treatment. Plasma was then prepared by centrifugation and preserved at -20° C. until the analysis.
The analytical determination of the active ingredient in the plasma samples was carried out by HPLC method as described hereinafter. Chromatographic conditions:
Apparatus: JASCO BIP-1 with U.V. detector UVI DEC-100 v
Column: Chiral AGP, 100×4.0 mm, 5 μm (Chron Tech) with a precolumn Chiral AGP 10×3.0 mm (Chron Tech) […]
The following parameters were calculated:
the area under curve of S(+)-Ibuprofen plasma concentration from time "zero" to "infinite" (AUCtot) was calculated by the following formula: AUCtot =AUCo→480 +AUC480→- wherein AUC480- =concentration at 480 minutes/Ke. and Ke =elimination constant
mean peak time (tmax), expressed as minutes, was obtained from the average of each peak time
the mean peak of maximum plasma concentration (Cmax), expressed as μg/ml, was calculated by the average of each concentration peak value.

[2] = in words, versus Ibuprofen (and, EP 424028, Ibuprofen salts and S(+)-Ibuprofen); cited from earlier work

increase of S(+)-Ibuprofen maximum plasma concentration over equivalent Ibuprofen salt composition ([1]; 400 mg or 300 mg of S(+)-Ibuprofen versus 800 mg or 600 mg of Ibuprofen, oral) | S(+)-Ibuprofen maximum plasma concentration (Cmax) compared with equivalent racemic Ibuprofen treatment ([1]; in words, versus reference treatment) | Compound | analgesic effect (onset and duration) [2]
15-20% | substantially equal | CC(C)Cc1ccc([C@H](C)C(=O)O)cc1 [S(+)-Ibuprofen arginate, salt of S(+)-Ibuprofen with L-arginine] | 
 |  | CC(C)Cc1ccc([C@H](C)C(=O)O)cc1 [S(+)-Ibuprofen, (S)-enantiomer of 2-(4-isobutylphenyl)propionic acid] | faster, and consequently a longer, analgesic effect than Ibuprofen
